Consider eight molecules from paper PMC9152369, “Integrated UPLC-Q-TOF-MS/MS and Network Pharmacology Approach to Investigating the Metabolic Profile of Marein of Coreopsis tinctoria Nutt” (Evidence-based Complementary and Alternative Medicine : eCAM, 2022).

Data set [1] in a line: Detection of marein and metabolites in rat plasma and urine after oral administration (UPLC-Q-TOF-MS/MS). It is filed as in vivo, Sprague–Dawley rats. Further details: key to Location (matrix in which the metabolite was detected): P: plasma; U: urine. To be noted: for Location (matrix in which the metabolite was detected): oral gavage of marein 200 mg/kg, plasma 0-1 h, urine 24 h. Here is the method:
(§1) Forty-eight healthy male Sprague–Dawley rats, SPF grade, weighing 250 ± 10 g, were purchased from Huafukang Laboratory Animal Technology Co. Ltd. (Beijing, China). Before use, all animals were reared for 5 days at a constant temperature of 25°C, a humidity of 40–60%, and a 12-hour light-dark cycle.
After adaptive feeding for 1 week, 24 SD rats were randomly divided into 4 groups: blank blood sample group, blank urine group, marein blood sample group, and marein urine group. The experimental animals were fasted 12 hours before the administration and free drinking water. Marein was dissolved with an appropriate amount of CMC-Na solution and was administered to SD rats by gavage at a dose of 200 mg/kg. The blank blood sample group was given an equal volume of CMC-Na solution.
(§2) Blood samples were collected from the fundus venous plexus of rats at 0, 0.08, 0.25, 0.5, and 1 h before and after gavage and injection. The blood samples were centrifuged (9,900 g, 10 min) to obtain plasma samples. All plasma samples were stored at −80°C until they were processed and analyzed.
(§3) Urine samples were collected for 24 hours by gavage and injection in a metabolic cage. All urine samples were stored at −80°C until they were processed and analyzed.
(§4) Take 100 μL of plasma from each group at the same time point and combine, add 900 μL of acetonitrile, vortex for 3 min, and centrifuge (4°C, 19,500 g) for 10 min. Take the supernatant, blow-dry, and concentrate and then add 900 μL of acetonitrile. Vortex for 3 minutes and then centrifuge (4°C, 19,500 g) for 10 minutes. Take the supernatant, dry it with nitrogen, and concentrate. Add 100 μL of 50% methanol to reconstitute the residue (methanol:water = 1:1), vortex, and centrifuge (4°C, 19,500 g) for 10 minutes. The supernatant was taken and analyzed by UPLC-Q-TOF-MS/MS. The blank plasma sample was processed in the same way.
(§5) Take 400 μL of urine, add 800 μL of methanol, vortex for 3 minutes, and centrifuge (4°C, 19,500 g) for 10 minutes. Take the supernatant, blow-dry, and concentrate and then add 800 μL of methanol to reconstitute, vortex for 3 minutes, and centrifuge (4°C, 19,500 g) for 10 minutes. In parallel, the supernatants were combined, dried, concentrated with nitrogen, and finally reconstituted with 100 μL 50% methanol (methanol:water = 1:1). The supernatant was analyzed by UPLC-Q-TOF-MS/MS. The blank urine sample was processed in the same way.
Used UPLC-Q-TOF-MS/MS 9030 system (Shimadzu, Japan), chromatography column: Shim-pack GISS C18 column (100 × 2.1 mm, 1.9 μm). […]
(§6) The data obtained by UPLC-Q-TOF-MS/MS were analyzed with Formula Predictor Server software. Target fragments are analyzed by ACD/Labs software accurate mass calculator (Shimadzu City, Japan).

The nature of data set [2]: Detection of marein and metabolites in rat plasma and urine after tail vein injection (UPLC-Q-TOF-MS/MS). Conditions: for Location (matrix in which the metabolite was detected): tail vein injection of marein 10 mg/kg, plasma 0-1 h, urine 24 h; for prototype components after tail vein injection: tail vein injection 10 mg/kg. It is filed as in vivo, Sprague–Dawley rats. Further details: key to Location (matrix in which the metabolite was detected): P: plasma; U: urine. Here is the method: as §1
After adaptive feeding of 24 SD rats for 1 week, they were randomly divided into 4 groups, namely: blank blood sample group, blank urine group, marein blood sample group, and marein urine group. The experimental animals were fasted 12 hours before the administration and free drinking water. Marein was dissolved in appropriate amounts of saline and administered to SD rats via tail vein injection at a dose of 10 mg/kg. The blank group was injected with an equal volume of saline through the tail vein.
as §2, §3, §4, §5
(§7) Used UPLC-Q-TOF-MS/MS 9030 system (Shimadzu, Japan), chromatography column: Shim-pack GISS C18 column (100 × 2.1 mm, 1.9 μm). Mobile phase: A phase 0.1% formic acid water, B phase acetonitrile, gradient elution, elution gradient: 0∼1 min, 5∼10% B; 1∼2 min, 10% B; 2∼3 min, 10∼15% B; 3∼5 min, 15∼20% B; 5∼11 min, 20∼40% B; 11∼13 min, 40∼80% B; 13∼15 min, 80∼95% B; 15∼17 min, 95% B; 17∼20 min, 5% B. Flow rate: 0.3 mL/min; column temperature: 40°C.
(§8) MS operation conditions were as follows. The Q-TOF-MS spectrometer was configured with an electrospray ion source (ESI) operating in the negative and positive ion modes. Ion source interface voltage is −3.0 Kv. Nitrogen is used as the drying gas and the atomizing gas. The drying gas flow rate is set to 10 L/min, and the atomizing gas flow rate is set to 3.0 L/min. Air is used as heating gas, and the flow rate is set to 10 L/min; argon is used as collision gas; desolvent tube temperature is 250°C; heating block temperature is 400°C; and interface temperature is 300°C. Scan modes are MS Scan (m/z 100–500; 500–1,000) and MS/MS (m/z 50–500; 50–1,000). The collision energy (CE) is 35 ± 17 V.
as §6

Data set [3] is described as follows: Metabolic stability of marein in rat liver microsome incubation. It is filed as in vitro ADME. To be noted: for Area% (remaining percentage): 37°C, NADPH. The method, then:
The total volume of the incubation system is 500 μL, including phosphate buffer (0.1 M, pH 7.4) 470 μL, and NADPH generating system 30 μL (Solution A: 25 μL and Solution B: 5 μL). The process is completed on an ice bath.
Marein blank control group: Take the above incubation system, add 5 μL of aqueous solution to an ice bath, incubate at 37°C for 5 min, and then add 15 μL of liver microsomes to the ice bath. After gently mixing the incubation system by hand, start the incubation at 37°C in a water bath. The incubation time is 0, 5, 15, 30, 45, 60, 90, and 120 min, and each sample is paralleled 3 times. When the reaction is complete, stop the reaction with the same volume of ice acetonitrile to completely precipitate the protein, centrifuge at 4,200 g for 10 min, aspirate the supernatant and centrifuge at 19,500 g for 10 min, and inject 2 μL for analysis.
Marein inactivated liver microsomes group: First inactivate liver microsomes, take the incubation system, add 5 μL of the marein reference substance stock solution on an ice bath, incubate at 37°C for 5 min, and then add 15 μL of inactivation to the ice bath. The following procedures were similar to the blank control group.
Marein liver microsomes group: Take the incubation system, add 5 μL of the marein reference substance stock solution to an ice bath, incubate at 37°C for 5 min, and then add 15 μL of liver microsomes to the ice bath. The following operation was the same as the blank control group.
as §7, §8
In the study of metabolism in vivo, the injection volume was 5 μL, while that in vitro metabolism was 2 μL.
In the liver microsomes study, the 0 min peak area of marein was regarded as 100%, and other time points were compared with the 0 min peak area to obtain the remaining percentage (area%). According to the natural logarithm of area% and incubation, the time slope k was obtained by linear regression. According to formula (1), the half-life t1/2/min of marein in liver microsomes could be obtained. According to formulas (2)–(5), the half-lives in liver microsomes, intrinsic clearance rate CLint, in vivo intrinsic clearance rate CL′int, liver clearance rate CLH, and liver extraction rate ER were calculated.(1) t1/2=−0.693/k, (2) CLint=0.693/t1/2incubationmL/microsomesmg, (3) CLint′=0.693/t1/2·incubationmL/microsomesmg·Liverg/BWkg·microsmesmg/Liverg, (4) CLH=Q·CLint′/Q+CLint′, (5) ER=CLH/Q.
The physical and chemical parameters: The liver tissue per kilogram of body weight for rat (Liver (g)/BW (kg)) was 40 g. Q is hepatic blood flow (66 ml/min/kg for rat), and CL′int is the intrinsic clearance. The microsomal protein per gram of liver tissue (microsomes (mg)/liver (g)) was 45 mg.
(In general: Liver microsomes are vesicles of endoplasmic reticulum, rich in cytochrome P450 enzymes.)

On the set-up of data set [4]: method as in PMID 27387397. To be noted: healthy volunteers, tea of C. tinctoria; cited from earlier work.

The structures appear in SMILES notation. Values joined by “and” are separate entries in the source; they are usually repeats but may differ in a detail not shown here. Identical values can stand only once. “Also recorded” adds a separate entry of the source.

Consider `O=c1cc(-c2ccc(O)c(O)c2)oc2c(O)c(O[C@@H]3O[C@H](CO)[C@@H](O)[C@H](O)[C@H]3O)ccc12` [M13], for which the “Location (matrix in which the metabolite was detected)” value (shortened to “Location”) was “P” in data set [1] and “P, U” in data set [2] (listed as M′10).
On to `O=C(/C=C/c1ccc(O)c(O)c1)c1ccc(O)c(O)c1O` [M24, okanin], for which the entries for the “Location” value in data set [1] and in data set [2] were “P” and “U”, respectively.
For `O=C1C[C@@H](c2ccc(O)c(O)c2)Oc2c1ccc(O[C@@H]1O[C@H](CO)[C@@H](O)[C@H](O)[C@H]1O)c2O` [M′1, flavanomarein], in data set [2], the “prototype components after tail vein injection” value is recorded as “detected” and the “Location” value is “P, U”.
Turning to `O=C(/C=C/c1cccc(O)c1)c1ccc(O[C@@H]2O[C@H](CO)[C@@H](O)[C@H](O)[C@H]2O)c(O)c1O` [M′11], the “Location” value in data set [2] was “U”.
Same read-out and setting: the same measure for `O=C(/C=C/c1ccc(O)cc1)c1ccc(O[C@@H]2O[C@H](CO)[C@@H](O)[C@H](O)[C@H]2O)c(O)c1O` [M′12]: “U”.
As to `O=C(/C=C/c1ccc(O)c(O)c1)c1ccc(O[C@@H]2O[C@H](CO)[C@@H](O)[C@H](O)[C@H]2O)cc1O` [M′13], the “Location” value in data set [2] is listed as “P, U”.
As to `O=C(CCc1ccccc1)c1ccc(O[C@@H]2O[C@H](CO)[C@@H](O)[C@H](O)[C@H]2O)c(O)c1O` [M′17], the “Location” value in data set [2] was “U”.
In the case of `O=C(/C=C/c1ccc(O)c(O)c1)c1ccc(O[C@@H]2O[C@H](CO)[C@@H](O)[C@H](O)[C@H]2O)c(O)c1O` [marein], the “CLint (intrinsic clearance rate)” value in data set [3] (SD rat liver microsomes) was 0.0065 mL·(min·mg protein)^−1. Further, the “t1/2 (in vitro metabolic half-life in liver microsomes)” value in data set [3] (SD rat liver microsomes) stood at 177.6923 min. Besides, the “ER (liver extraction rate)” value in data set [3] (SD rat, ER=CLH/Q) is 0.15 and 0.1506. For the same molecule, the “CLH (liver clearance rate)” value in data set [3] (SD rat, Q 66 ml/min/kg) amounted to 9.9382 mL·min/kg. For the same molecule, the “CL′int (in vivo intrinsic clearance rate)” value in data set [3] (SD rat, scaled with 40 g liver/kg, 45 mg microsomal protein/g liver) came out at 11.7000 mL·min/kg. Moreover, in data set [3] (SD, rat, liver microsomes, pH 7.4, SD rat liver microsomes, read-out: t1/2 (in vitro metabolic half-life in liver microsomes)), the half-life came out at 178 min. In addition, the “Ln (area%)” value is reported as 4.61 in data set [3] (incubation 0 min); 4.59 in data set [3] (incubation 5 min); 4.46 in data set [3] (incubation 15 min); 4.41 in data set [3] (incubation 30 min); 4.36 in data set [3] (incubation 45 min); 4.22 in data set [3] (incubation 60 min). Also, the “Ln (area%)” value in data set [3] (incubation 90 min) was 4.21; in data set [3] (incubation 120 min), 4.14. Besides, the “Area% (remaining percentage)” value was 100% in data set [3] (incubation 0 min, 0 min regarded as 100%); 98.69% in data set [3] (incubation 5 min); 86.70% in data set [3] (incubation 15 min); 82.34% in data set [3] (incubation 30 min); 77.93% in data set [3] (incubation 45 min); 68.01% in data set [3] (incubation 60 min). Moreover, the figures for the “Area% (remaining percentage)” value in data set [3] (incubation 90 min) and in data set [3] (incubation 120 min) were 67.21% and 62.76%, respectively. Also, the “metabolic stability in liver microsomes” value in data set [3] (rat liver microsomes) is “good”. The “prototype in plasma and urine after gavage” value in data set [1] (oral gavage 200 mg/kg, 200 mg/kg) is “no prototype components were found; also recorded: not detected in the original form”. For the same molecule, in data set [1] (preliminary experiments of the team), the “marein in plasma after intragastric administration” value is “no marein was found in plasma”. The “prototype components after tail vein injection” value in data set [2] is “detected”. Also, in data set [2], the “Location” value was “P, U”. For the same molecule, the “marein in blood after drinking C. tinctoria tea” value in data set [4] was “no marein is detected”.
